Source: ChEMBL document CHEMBL1158862, “Insect Toxins from an Endophytic Fungus from Wintergreen” (J Nat Prod, 1997)

Assay: Toxicity in spruce budworm larvae assessed as mortality at 0.8 umol
Type: organism-based
Details: choristoneura fumiferana, in vivo, read-out: Activity

CC(C)=CCCC(=O)c1cc2cc(O)ccc2o1
mortality: 36%
